Results as given in ChEMBL document CHEMBL1201862, “PubChem BioAssay data set” (2004).
Activity calls are given as the source filed them.

Legend:
[1] = test system: Vero; experiment: cells; format: functional; details: Chlorocebus sabaeus
[2] = microbe, parasite or virus in culture; format: functional; details: Mycobacterium tuberculosis
[3] = target: Heat shock protein HSP 90-alpha (Homo sapiens, UniProt P07900); format: functional, organism-based
[4] = target: T1, Carboxy-terminal domain RNA polymerase II polypeptide A small phosphatase 1 (Homo sapiens, UniProt Q9GZU7); experiment: CTDSP1 inhibitors, concentration-response, biochemical, absorbance readout, ultra-high-throughput screen actives (AID 540297); format: functional
T1 sequence (Q9GZU7 whole entry): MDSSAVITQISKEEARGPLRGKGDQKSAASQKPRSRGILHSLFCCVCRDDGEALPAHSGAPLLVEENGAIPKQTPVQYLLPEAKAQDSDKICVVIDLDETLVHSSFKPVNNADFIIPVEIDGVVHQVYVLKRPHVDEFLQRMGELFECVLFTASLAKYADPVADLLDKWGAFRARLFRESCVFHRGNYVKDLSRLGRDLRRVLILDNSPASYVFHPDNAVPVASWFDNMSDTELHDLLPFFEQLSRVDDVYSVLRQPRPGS

[5] = cells; format: functional, cell-based
[6] = cells; format: functional, cell-based; remark: listed apart in the source
[7] = HIV-1 AD8 envelope cell-cell fusion blockers – cherry-pick, dose response (AID 652062); format: functional, cell-based;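 note: luciferase signal from cell-cell fusion driven by HIV-1 clade B AD8 Env; potency is for inhibitors of fusion seen as a drop in luminescence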
[8] = blockers of HIV-1 ZM109 envelope-driven cell-cell fusion – HeLa effector, CEM target cells, luciferase, cherry-pick, dose response (AID 652058); format: functional, cell-based;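 note: luciferase signal from HIV-1 Env mediated cell-cell fusion of effector and target cells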
[9] = off-target signal loss in HeLa-CEM21 co-culture – HeLa F-luc CTL cells, cherry-picked, counter-screen for HIV-1 Env fusion inhibitor project, dose response (AID 652040); format: functional, cell-based;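 note: potency for signal decrease marking cytotoxic or nonspecific inhibition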
[10] = blockers of HIV-1 envelope-mediated cell-cell fusion – cherry-pick, dose response (AID 652057); format: functional, cell-based
[11] = target: Cytochrome P450 3A4 (Homo sapiens, UniProt P08684); details: Potency;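 note: confirmatory qHTS run detecting inhibitors and substrates of CYP3A4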
[12] = target: Paired box protein Pax-8 (Homo sapiens, UniProt Q06710); experiment: PAX8 transcriptional activity inhibition in RMG-I – RMG-I cells, luciferase, cherry-pick, dose response (AID 687027); format: functional, cell-based;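 note: luciferase reporter driven by Pax8 target thyroperoxidase promoter measured by SteadyGlo luminescence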
[13] = test system: Vero; experiment: cells; format: functional, cell-based; details: Chlorocebus sabaeus
[14] = cells; format: functional, cell-based; remark: listed apart in the source
[15] = cells; format: functional, cell-based; remark: listed apart in the source
[16] = target: Large T antigen (Simian virus 40, UniProt P03070); format: functional, Betapolyomavirus macacae;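 note: Confirmatory-stage PubChem screen for compounds that inhibit SV40 T antigen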
[17] = target: T2, Fatty acid synthase (Homo sapiens, UniProt P49327); experiment: inhibition of human FAS-TE enzyme activity – biochemical, kinetic fluorescence intensity, dose response (AID 624326); format: functional;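 note: rate of fluorescence rise from hydrolysis of a fluorogenic O-methyl fluorescein ester substrate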
[18] = target: T2, Fatty acid synthase; experiment: inhibition of human FAS-TE enzyme activity – biochemical, endpoint fluorescence intensity, uHTS hits, dose response (AID 624327); format: functional;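 note: fluorescence from hydrolysis of an O-methyl fluorescein acyl ester substrate by the enzyme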
[19] = target: T3, Small ubiquitin-related modifier 1 (Homo sapiens, UniProt P63165); experiment: SUMO1 protein interaction blockers, potency – biochemical, fluorescence polarization, uHTS hits, dose response (AID 624382); format: functional; details: read-out: IC50_Mean
[20] = target: T3, Small ubiquitin-related modifier 1; experiment: SUMO1 protein-protein binding blockers, potency – biochemical, FRET, dose response (AID 624383); format: functional; details: read-out: IC50_Mean
[21] = viability of uninfected HEp-2 cells – cell-based, HTS, cytotoxicity control for RSV inhibitor project, dose response (AID 2410); format: functional; details: human respiratory syncytial virus
[22] = target: Photoreceptor-specific nuclear receptor (Homo sapiens, UniProt Q9Y5X4); format: functional, cell-based;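 note: CHO-S cells with Gal4-NCOR and VP16-NR2E3 two-hybrid luciferase reporter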
Chain of Photoreceptor-specific nuclear receptor (Q9Y5X4 whole entry, the tested form may be a part): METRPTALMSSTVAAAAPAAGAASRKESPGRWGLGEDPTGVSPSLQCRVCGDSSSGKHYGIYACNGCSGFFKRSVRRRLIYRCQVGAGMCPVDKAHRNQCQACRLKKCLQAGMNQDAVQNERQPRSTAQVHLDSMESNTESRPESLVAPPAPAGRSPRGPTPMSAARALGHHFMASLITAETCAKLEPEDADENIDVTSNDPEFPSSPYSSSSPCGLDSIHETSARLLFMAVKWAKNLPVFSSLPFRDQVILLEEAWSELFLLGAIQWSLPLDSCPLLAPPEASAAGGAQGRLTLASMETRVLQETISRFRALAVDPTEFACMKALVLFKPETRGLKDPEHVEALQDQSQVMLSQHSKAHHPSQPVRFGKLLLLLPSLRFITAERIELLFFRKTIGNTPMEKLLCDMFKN

T2 sequence (P49327 whole entry): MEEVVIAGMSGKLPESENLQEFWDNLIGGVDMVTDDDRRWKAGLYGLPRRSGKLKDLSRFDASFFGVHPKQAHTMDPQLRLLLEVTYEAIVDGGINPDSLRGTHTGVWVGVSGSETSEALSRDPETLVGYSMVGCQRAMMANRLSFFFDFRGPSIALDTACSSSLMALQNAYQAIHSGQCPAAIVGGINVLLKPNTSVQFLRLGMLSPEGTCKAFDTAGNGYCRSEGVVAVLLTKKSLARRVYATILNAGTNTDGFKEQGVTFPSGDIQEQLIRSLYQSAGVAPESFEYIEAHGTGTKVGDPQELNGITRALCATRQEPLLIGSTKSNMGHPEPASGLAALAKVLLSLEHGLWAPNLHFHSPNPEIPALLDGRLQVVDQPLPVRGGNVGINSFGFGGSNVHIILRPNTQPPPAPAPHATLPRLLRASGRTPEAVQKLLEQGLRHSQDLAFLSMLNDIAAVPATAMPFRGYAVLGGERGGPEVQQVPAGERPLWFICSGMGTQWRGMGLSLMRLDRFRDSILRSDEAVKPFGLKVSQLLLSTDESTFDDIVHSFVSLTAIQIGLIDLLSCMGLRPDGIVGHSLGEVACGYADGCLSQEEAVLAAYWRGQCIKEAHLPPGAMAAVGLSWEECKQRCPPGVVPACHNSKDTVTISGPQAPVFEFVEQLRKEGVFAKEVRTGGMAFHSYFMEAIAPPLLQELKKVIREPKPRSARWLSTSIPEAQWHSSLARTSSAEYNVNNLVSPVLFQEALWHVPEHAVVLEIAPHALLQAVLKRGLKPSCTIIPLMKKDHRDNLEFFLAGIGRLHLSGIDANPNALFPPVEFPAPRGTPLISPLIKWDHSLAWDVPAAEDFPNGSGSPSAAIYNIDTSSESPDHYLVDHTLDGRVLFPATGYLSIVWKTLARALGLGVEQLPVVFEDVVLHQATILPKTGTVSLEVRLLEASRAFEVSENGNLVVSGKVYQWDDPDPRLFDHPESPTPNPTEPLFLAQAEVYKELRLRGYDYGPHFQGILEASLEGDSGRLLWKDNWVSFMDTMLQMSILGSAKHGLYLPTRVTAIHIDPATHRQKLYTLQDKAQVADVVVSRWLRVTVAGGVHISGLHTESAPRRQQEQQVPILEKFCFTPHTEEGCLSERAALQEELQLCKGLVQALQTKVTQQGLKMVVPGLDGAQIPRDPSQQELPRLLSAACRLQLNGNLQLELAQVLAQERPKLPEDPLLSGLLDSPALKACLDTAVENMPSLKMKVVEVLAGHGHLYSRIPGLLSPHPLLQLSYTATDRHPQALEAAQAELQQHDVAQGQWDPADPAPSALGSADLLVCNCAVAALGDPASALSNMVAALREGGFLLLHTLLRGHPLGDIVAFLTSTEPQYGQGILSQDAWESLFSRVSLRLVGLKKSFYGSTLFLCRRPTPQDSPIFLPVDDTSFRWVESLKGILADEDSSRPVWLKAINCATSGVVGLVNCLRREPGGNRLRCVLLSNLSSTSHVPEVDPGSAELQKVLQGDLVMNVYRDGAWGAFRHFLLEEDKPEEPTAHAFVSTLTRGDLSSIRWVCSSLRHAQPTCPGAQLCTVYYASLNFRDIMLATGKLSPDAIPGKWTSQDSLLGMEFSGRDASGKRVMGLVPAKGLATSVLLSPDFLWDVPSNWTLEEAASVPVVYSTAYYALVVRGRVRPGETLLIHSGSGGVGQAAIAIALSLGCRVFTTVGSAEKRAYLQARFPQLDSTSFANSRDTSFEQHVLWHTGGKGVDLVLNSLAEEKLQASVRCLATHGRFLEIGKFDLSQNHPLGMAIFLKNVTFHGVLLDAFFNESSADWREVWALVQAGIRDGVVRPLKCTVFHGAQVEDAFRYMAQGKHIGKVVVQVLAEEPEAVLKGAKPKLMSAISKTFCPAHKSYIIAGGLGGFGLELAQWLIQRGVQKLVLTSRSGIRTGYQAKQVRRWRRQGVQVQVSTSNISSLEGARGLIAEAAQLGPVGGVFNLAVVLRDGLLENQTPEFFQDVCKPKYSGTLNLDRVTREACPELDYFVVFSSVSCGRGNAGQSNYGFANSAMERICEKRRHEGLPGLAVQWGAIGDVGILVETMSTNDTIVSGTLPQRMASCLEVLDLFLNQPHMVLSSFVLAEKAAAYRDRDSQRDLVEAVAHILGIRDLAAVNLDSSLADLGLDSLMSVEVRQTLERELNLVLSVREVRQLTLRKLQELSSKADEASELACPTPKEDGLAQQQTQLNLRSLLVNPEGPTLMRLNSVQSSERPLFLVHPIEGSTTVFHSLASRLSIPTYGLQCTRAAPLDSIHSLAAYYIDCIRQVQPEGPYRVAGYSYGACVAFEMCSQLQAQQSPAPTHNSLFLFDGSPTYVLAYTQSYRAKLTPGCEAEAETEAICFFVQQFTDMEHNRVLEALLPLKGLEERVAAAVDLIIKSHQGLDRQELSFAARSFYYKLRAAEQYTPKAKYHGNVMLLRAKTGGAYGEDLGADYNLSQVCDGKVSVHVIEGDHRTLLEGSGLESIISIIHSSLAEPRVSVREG
T3 sequence (P63165 whole entry): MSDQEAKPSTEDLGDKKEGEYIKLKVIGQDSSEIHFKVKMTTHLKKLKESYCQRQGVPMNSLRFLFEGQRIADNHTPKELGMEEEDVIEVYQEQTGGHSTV
Chain of Large T antigen (P03070 whole entry): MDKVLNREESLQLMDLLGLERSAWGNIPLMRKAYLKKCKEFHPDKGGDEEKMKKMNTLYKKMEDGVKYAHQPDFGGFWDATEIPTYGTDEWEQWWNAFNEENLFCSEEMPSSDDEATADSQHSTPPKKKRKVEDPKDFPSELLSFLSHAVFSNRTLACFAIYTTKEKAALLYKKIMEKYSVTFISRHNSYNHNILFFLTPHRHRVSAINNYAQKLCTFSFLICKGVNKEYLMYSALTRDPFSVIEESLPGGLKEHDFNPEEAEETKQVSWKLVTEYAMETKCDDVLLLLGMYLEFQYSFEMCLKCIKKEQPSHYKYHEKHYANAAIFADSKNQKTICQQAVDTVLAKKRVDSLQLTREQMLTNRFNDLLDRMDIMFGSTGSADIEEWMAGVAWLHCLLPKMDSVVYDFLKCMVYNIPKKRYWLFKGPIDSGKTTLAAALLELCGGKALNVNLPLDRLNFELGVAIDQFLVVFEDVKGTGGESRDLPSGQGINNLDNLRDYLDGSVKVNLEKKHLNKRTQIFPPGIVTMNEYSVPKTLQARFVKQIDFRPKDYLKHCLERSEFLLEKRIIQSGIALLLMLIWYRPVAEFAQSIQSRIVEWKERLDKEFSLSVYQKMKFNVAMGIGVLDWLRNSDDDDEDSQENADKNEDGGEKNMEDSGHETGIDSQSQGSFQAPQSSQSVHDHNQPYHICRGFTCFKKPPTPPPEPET
Chain of Cytochrome P450 3A4 (P08684 whole entry): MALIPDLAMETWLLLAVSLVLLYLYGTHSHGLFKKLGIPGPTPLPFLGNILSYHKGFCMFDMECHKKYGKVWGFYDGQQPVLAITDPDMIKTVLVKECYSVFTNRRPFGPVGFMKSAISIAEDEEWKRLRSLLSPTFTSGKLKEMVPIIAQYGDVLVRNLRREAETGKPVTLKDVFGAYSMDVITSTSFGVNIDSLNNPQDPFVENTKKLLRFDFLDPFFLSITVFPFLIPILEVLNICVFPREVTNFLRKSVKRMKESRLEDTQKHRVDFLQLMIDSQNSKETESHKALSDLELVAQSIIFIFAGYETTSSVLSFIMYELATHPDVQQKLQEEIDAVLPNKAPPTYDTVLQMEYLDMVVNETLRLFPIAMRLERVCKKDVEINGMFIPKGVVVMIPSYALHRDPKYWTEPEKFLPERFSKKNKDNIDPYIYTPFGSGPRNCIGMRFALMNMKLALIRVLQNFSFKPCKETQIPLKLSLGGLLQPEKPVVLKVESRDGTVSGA
Chain of Paired box protein Pax-8 (Q06710 whole entry): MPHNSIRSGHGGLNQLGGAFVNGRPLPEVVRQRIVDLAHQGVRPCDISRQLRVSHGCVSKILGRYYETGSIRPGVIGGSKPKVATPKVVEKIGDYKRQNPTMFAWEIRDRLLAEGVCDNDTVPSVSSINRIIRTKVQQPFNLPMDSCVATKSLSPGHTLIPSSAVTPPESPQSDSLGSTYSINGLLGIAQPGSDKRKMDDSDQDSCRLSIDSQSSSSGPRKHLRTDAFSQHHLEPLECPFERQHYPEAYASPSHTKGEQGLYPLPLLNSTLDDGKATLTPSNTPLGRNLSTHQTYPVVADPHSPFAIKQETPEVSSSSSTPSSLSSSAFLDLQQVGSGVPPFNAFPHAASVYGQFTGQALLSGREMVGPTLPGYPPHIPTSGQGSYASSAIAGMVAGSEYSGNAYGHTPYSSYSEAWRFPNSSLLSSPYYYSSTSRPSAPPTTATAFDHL

## CCN1CSC(=S)N(Cc2ccccc2)C1
[1]
  CC50: 16.1 µM (active)
[2]
  CC50: 20.7 µM (active)

## Oc1ccc(-c2nc3ccc4ccccc4c3c3c2CCC3)cc1O
[3]
  AC50: 6.97 µM (active)

## Nc1c(C(=O)OCC(=O)Nc2cccc([N+](=O)[O-])c2)[nH]c(=O)[nH]c1=O
[4]
  IC50: 7.55 µM (active)

## Cc1ccccc1CN1C(=O)CSc2ccc(C(=O)N3CCOCC3)cc21
[5]
  EC50: > 350 µM (not active)
[6]
  EC50: > 350 µM (not active)

## O=C1CC(C(=O)N(CC2CCCO2)C(C(=O)NC2CCCCC2)c2ccncc2)CS1 (stereo unspecified)
[7]
  AC50: 37.8 µM (active)
[8]
  AC50: 6.85 µM (active)
[9]
  AC50: 30.2 µM (active)
[10]
  AC50: 7.23 µM (active)

## Cc1ccc2nc(-c3ccc(N)cc3)sc2c1S(=O)(=O)O
[11]
  AC50: 31.6 µM (inconclusive)

## C[C@]12CC[C@H](O)C[C@@H]1CC[C@@H]1[C@@H]2CC[C@]2(C)[C@@H](C3=CC(=O)OC3)CC[C@]12O
[12]
  AC50: 2.09 µM (active)
[1]
  CC50: 1.65 µM (active)
[13]
  IC50: < 0.05 µM (active)

## Cn1c(=O)c2nc(Nc3ccccc3)[nH]c2n(C)c1=O
[14]
  EC50: > 29.9 µM (inactive)
[15]
  IC50: > 29.9 µM (inactive)

## COc1cc(OC)cc(C(=O)N[C@H](C(=O)NCCc2c[nH]c3ccccc23)C(C)C)c1
[8]
  AC50: 16.8 µM (active)
[9]
  AC50: 35.6 µM (active)
[10]
  AC50: 11 µM (active)

## COc1ccc(NC2CCCN(C(=O)CSc3ccccc3)C2)cc1 (stereo unspecified)
[16]
  IC50: 7.48 µM (active)

## O=[N+]([O-])c1ccc2c(c1N1CCCCC1)=NC1(CCCCC1)[N+]=2[O-]
[16]
  IC50: > 100 µM (active)

## CC(C)OC(=O)[C@H]1[C@H](c2ccc(Cl)cc2)[C@@](C#N)(C(N)=O)[C@@H]2C=CC(C(N)=O)=CN21
[17]
  IC50: 7.56 µM (active)
[18]
  IC50: 10.9 µM (active)

## O=C(C[C@H]1C[C@H](C(=O)N2CCOCC2)[C@@]2(CCC3CCCC3)c3[nH]c4cc(-c5ccco5)ccc4c3CCN2C1=O)NCCN1CCOCC1
[17]
  IC50: 3.76 µM (active)
[18]
  IC50: 6.62 µM (active)

## Cc1ccc(Cl)cc1Nc1nc(-c2sc(NC(=O)C(C)(C)C)nc2C)cs1
[19]
  IC50: > 66.6 µM (inactive)
[20]
  IC50: 9.1 µM (active)
[21]
  CC50: 21.4 µM (active)

## CC(=O)c1ccc(N2/C(=N/C(=O)COc3ccccc3)SC3CS(=O)(=O)CC32)cc1 (stereo unspecified)
[5]
  EC50: > 350 µM (not active)
[6]
  EC50: > 350 µM (not active)

## CCc1nc2c(OCc3ccc(Cl)cc3)cccn2c1N(C=O)Cc1ccc(OC)cc1
[17]
  IC50: 9.84 µM (active)
[18]
  IC50: 8.01 µM (active)

## N#C/C(=C/c1ccc(N2CCCCC2)o1)C(=O)NCCc1c[nH]c2ccccc12
[1]
  CC50: > 25 µM (active)
[21]
  CC50: 49.6 µM (active)

## CC(=O)N1c2ccc(S(=O)(=O)N3CCC(C(=O)Nc4cccc(Cl)c4)CC3)cc2CC1C (stereo unspecified)
[22]
  IC50: 1.47 µM (active)

## CCCCCCCCCCCCCC(=O)NO
[3]
  AC50: 2.71 µM (active)
